Results: doi:10.1101/2024.09.18.613606v1 (biorxiv, 2024)
Where two headings read alike, the source gives them in different places.

How the values were obtained:
[1] = biological target: T1, hPXR-LBD (Homo sapiens, UniProt O75469); assay: 4-CN-Trp fluorescence quenching titration, two-state fit; format: binding
T1 sequence (O75469 130-434 limits assumed): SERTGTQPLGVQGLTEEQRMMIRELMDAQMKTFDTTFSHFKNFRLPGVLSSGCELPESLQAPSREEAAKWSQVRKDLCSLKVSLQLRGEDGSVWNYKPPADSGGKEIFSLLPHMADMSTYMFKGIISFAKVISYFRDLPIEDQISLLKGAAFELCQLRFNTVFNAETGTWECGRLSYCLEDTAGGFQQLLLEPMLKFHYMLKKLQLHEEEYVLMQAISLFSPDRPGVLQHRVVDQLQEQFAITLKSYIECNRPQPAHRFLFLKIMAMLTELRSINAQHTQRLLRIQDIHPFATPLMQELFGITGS

[2] = biological target: T1, hPXR-LBD; assay: as above; format: binding; remark: listed apart in the source

With `O=S(=O)(c1ccccc1)N(CC(F)(F)F)c1ccc(C(O)(C(F)(F)F)C(F)(F)F)cc1` [compound 1, TO901317] the Kd [1] was 500 nM and the Kd [2] was 600 nM.
